Active and inactive are the calls of the source. The calls are words filed in the database; no cut-off is given here.

Data set [1] in a line: Inhibition of N-terminal 6His-tagged TRKC G696A mutant (506 to 829 residues) (unknown origin) expressed in Escherichia coli incubated for 60 mins by [gamma-33P]-ATP based TopCount NXT liquid scintillation assay. Details: species or system Homo sapiens.
Data set [2] is described as follows: Inhibition of human extracellular domain deleted TRKA V573M mutant expressed in mouse NIH3T3 cells assessed as reduction in TRKA phosphorylation incubated for 1 hrs by ELISA. The data set is classed as cell-based. The note with it: NIH3T3, 1 h.
The nature of data set [3]: Inhibition of human extracellular domain deleted TRKA G667S mutant expressed in mouse NIH3T3 cells assessed as reduction in TRKA phosphorylation incubated for 1 hrs by ELISA. The data set is classed as cell-based. Conditions: NIH3T3, 1 h. Background: ELISA stands for enzyme-linked immunosorbent assay.
Data set [4] can be described thus: Inhibition of N-terminal 3FLAG-tagged wild type ETV6-TRKC (unknown origin) expressed in NIH3T3 cells assessed as ERK1/2 phosphorylation incubated for 1 hrs by flow cytometric analysis. The data set is classed as cell-based, Homo sapiens.
The nature of data set [5]: Inhibition of N-terminal 3FLAG-tagged ETV6-TRKC G623R mutant (unknown origin) expressed in NIH3T3 cells assessed as ERK1/2 phosphorylation incubated for 1 hrs by flow cytometric analysis. The format is cell-based, Homo sapiens. (In general: In flow cytometry, cells or beads pass a laser one at a time.)
The nature of data set [6]: Inhibition of N-terminal 3FLAG-tagged ETV6-TRKC G696A mutant (unknown origin) expressed in NIH3T3 cells assessed as ERK1/2 phosphorylation incubated for 1 hrs by flow cytometric analysis. The format is cell-based, Homo sapiens.
For data set [7], the system named is NIH3T3. In words: In vivo inhibition of […] in nu/nu NCr mouse implanted with mouse NIH3T3 cells harboring extracellular domain deleted […] assessed as reduction in […] phosphorylation at 60 mg/kg, po administered once daily for 3 days and measured after 2 hrs post last dose by ELISA. The data set is classed as functional, organism-based. The note with it: time 3.0 day.

The subject of data set [8] is NIH3T3. In words: In vivo inhibition of […] in nu/nu NCr mouse implanted with mouse NIH3T3 cells harboring extracellular domain deleted […] assessed as reduction in […] phosphorylation at 10 to 100 mg/kg, po administered twice daily for 3 days and measured after 2 hrs post last dose by ELISA. The format is functional, organism-based. Conditions: dose 10-100 mg/kg, time 3.0 day.

For another data set, the system named is KM12. In words: Antitumor activity against human KM12 cells harboring TPM3-TRKA fusion protein xenografted in nu/nu NCr mouse assessed as inhibition of tumor growth at 60 mg/kg, po administered once daily for 11 days. The data set is classed as functional, organism-based. Conditions: time 11.0 day. Background: In xenograft studies the graft and the host belong to different species.

Data set [9] has as its system NIH3T3. Kind of data set: Antitumor activity against mouse NIH3T3 cells harboring extracellular domain deleted TRKA implanted in nu/nu NCr mouse assessed as inhibition of tumor growth at 60 mg/kg, po administered once daily for 10 days. The format is functional, organism-based. Conditions: time 10.0 day.
The nature of data set [10]: Toxicity in nu/nu NCr mouse xenografted with human KM12 cells harboring TPM3-TRKA fusion protein assessed as body weight loss at 60 mg/kg, po administered once daily for 11 days relative to control. The format is organism-based. The note with it: in vivo, 264 h, time 11 day.
Data set [11] can be described thus: Toxicity in nu/nu NCr mouse implanted with mouse NIH3T3 cells harboring extracellular domain deleted TRKA assessed as body weight loss at 60 mg/kg, po administered once daily for 10 days relative to control. The data set is classed as organism-based. The note with it: in vivo, 240 h, time 10 day.
The nature of data set [12]: Toxicity in nu/nu NCr mouse implanted with mouse NIH3T3 cells harboring extracellular domain deleted TRKA G595R mutant assessed as body weight loss at 60 mg/kg, po administered once daily for 12 days relative to control. The data set is classed as organism-based. Conditions: in vivo, 288 h, time 12 day.

What is called IC50 is the concentration at which inhibition is half-maximal. For the compound `O=C(Nc1cnn2ccc(N3CCC[C@@H]3c3cc(F)ccc3F)nc12)N1CC[C@H](O)C1` [LAROTRECTINIB], the IC50 in data set [1] is 0.0045 µM; in data set [2], 1.02 µM; in [3] it was 0.07 µM; in data set [4] it was 0.0188 µM; in data set [5] it was greater than 10 µM; in [6], 0.172 µM. In addition, the inhibition result in the data set on NIH3T3 [7] and in the data set with NIH3T3 [8] was “Active” in each case. For the same compound, the outcome in the data set with KM12 and in the data set with NIH3T3 [9] was Active. The Activity in [10], in data set [11] and in [12] was less than 5% throughout.
